Measurements reported in patent US10434128B2, “Composition comprising Ulmi cortex extracts for inhibiting ovotoxicity” (DONGGUK UNIVERSITY GYEONGJU CAMPUS INDUSTRY-ACADEMY …, priority 2017, dated 2019).

Columns and labels:
CHO-K1 cells = assay: Cell morphology observation, VCD-induced cell damage; type: cell-based, Chinese hamster; conditions: 1.5 mM VCD, 24 hours
Method: Through cell morphological changes, it was confirmed whether the Ulmi cortex extract protected CHO-K1 cells from cell damage induced by VCD.
First, cells were distributed into a 96-well plate at a density of 1×10^4 cells/well, and the cells were cultured until the next day, followed by serum starvation for 4 hours. Subsequently, the cells were pre-treated with 300 μg/ml of the Ulmi cortex extract for 4 hours and treated with 1.5 mM VCD, and then incubated at 37° C. under 5% CO2 for 24 hours, and the cells were observed using an optical microscope (Nikon, Japan).

PARP and caspase-3 = assay: Western blot of apoptosis proteins in CHO-K1 cells with VCD-induced ovotoxicity; type: cell-based, Chinese hamster; conditions: 1.5 mM VCD; compared to a control
Method: As confirmed in Example 4, when CHO-K1 cells were treated with VCD, apoptosis occurred. To examine an effect of pretreatment with the Ulmi cortex extract (300 μg/ml), proteins associated with apoptosis, i.e., poly(ADP-ribosyl) polymerase (PARP) and caspase-3, were identified through western blot analysis.
As described in Example 5-1, a protein sample was collected from CHO-K1 cells pretreated with 300 μg/ml of the Ulmi cortex extract for […] and treated with 1.5 mM VCD. For this, the cells treated with VCD were washed three times with PBS, RIPA buffer was added thereto, and the resulting cells were allowed to react at 4° C. for 30 minutes and then centrifuged at 12,000 rpm for 30 minutes to collect a supernatant, and proteins were extracted therefrom. Subsequently, the same amount of the proteins were separated on a sodium dodecyl sulfate-polyacrylamide gel electrophoresis (SDS-PAGE), and then transferred to a PVDF membrane. To block non-specific binding, the membrane was treated with a blocking buffer (5% skim milk) for 1 hour, and washed with a PBST solution containing 0.1% Tween 20. Thereafter, the membrane was allowed to react with primary antibodies against PARP and caspase-3 at 4° C. overnight. […]

B6C3F1 female mice = assay: VCD-induced premature ovarian failure animal model; conditions: VCD 160 mg/kg/day i.p. five times a week, 2 weeks
Method: B6C3F1 female mice at the age of 3 weeks (10 g to 12 g) from the same date of birth (DOB) as an experimental animal were purchased from the Central Lab Animal Inc., were adapted to a laboratory environment while sufficiently fed feed and water, and then used in an experiment. The laboratory environment was maintained at a temperature of 22±2° C. and a 12-hour day/12-hour night cycle was maintained until the experiment was completed. […]
Body weight changes were observed every week, based on the body weight measured on the start day of the experiment (day 1). […] One ovary was removed and the ovarian weight was measured and an ovarian weight index was calculated as a ratio of the measured ovarian weight with respect to the body weight immediately before sacrifice.

C1CC2OC2CC1C1CO1 (centres unmarked) [VCD, 4-vinylcyclohexene diepoxide]
cell morphology, group treated only with VCD (CHO-K1 cells): apoptosis was observed
proform band of PARP, treated only with VCD (PARP and caspase-3): decreased
proform band of caspase-3, treated only with VCD (PARP and caspase-3): became pale
ovarian weight index, negative control (VCD) vs normal group (B6C3F1 female mice): significant decrease compared to the normal group
sizes of the ovary and the uterus, negative control (VCD) (B6C3F1 female mice): significantly decreased
